From US11331299B2, “Medicinal use of serrulatane diterpenes” (The University of Sydney, priority 2016, dated 2022) come the findings set out here.

Holding throughout (format): biochemical
One test concerns the target T1, JMJD2B (h) (Homo sapiens, UniProt O94953).
T1 sequence (O94953 1-1096): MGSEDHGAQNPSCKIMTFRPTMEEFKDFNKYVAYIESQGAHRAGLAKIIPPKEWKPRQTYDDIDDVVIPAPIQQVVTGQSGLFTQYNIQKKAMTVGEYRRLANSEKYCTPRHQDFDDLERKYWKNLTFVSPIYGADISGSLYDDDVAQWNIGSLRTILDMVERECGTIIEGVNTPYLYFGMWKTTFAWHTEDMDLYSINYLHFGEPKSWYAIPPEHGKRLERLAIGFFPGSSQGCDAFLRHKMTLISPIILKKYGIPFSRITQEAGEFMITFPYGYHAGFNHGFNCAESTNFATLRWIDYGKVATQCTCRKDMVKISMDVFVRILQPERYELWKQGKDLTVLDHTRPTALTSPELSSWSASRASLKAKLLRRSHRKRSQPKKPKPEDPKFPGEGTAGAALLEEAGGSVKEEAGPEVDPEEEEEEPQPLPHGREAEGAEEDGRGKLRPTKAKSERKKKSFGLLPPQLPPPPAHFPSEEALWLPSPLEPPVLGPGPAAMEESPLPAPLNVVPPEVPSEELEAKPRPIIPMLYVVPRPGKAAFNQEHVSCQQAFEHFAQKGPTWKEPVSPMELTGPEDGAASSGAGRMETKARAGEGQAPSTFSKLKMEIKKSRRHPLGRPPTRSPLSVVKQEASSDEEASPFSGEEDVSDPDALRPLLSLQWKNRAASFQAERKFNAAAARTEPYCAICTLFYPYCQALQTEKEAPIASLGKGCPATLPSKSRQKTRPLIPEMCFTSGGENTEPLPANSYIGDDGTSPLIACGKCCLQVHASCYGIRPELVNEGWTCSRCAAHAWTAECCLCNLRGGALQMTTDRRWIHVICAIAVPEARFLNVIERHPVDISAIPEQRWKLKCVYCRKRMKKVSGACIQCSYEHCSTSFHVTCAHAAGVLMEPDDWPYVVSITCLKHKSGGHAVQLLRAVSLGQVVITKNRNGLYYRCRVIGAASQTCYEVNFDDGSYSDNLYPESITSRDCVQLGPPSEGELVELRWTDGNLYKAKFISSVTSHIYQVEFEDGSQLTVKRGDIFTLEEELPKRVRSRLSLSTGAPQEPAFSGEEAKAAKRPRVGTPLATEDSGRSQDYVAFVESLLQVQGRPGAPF
The experiment in a line: Epigenetic enzyme assay, Demethylases (KDMs). Particulars: for inhibition at 10 µM: read-out: % Inhibition of Control Values.

The target in another test is PRMT5 complex (h) (Homo sapiens, UniProt O14744). As to the kind of experiment: Epigenetic enzyme assay, Methyltransferases (MTs). Particulars: read-out: % Inhibition of Control Values.
For a further test, the target named is T2, PRMT7 (h) (Homo sapiens, UniProt Q9NVM4).
T2 sequence (Q9NVM4 1-692): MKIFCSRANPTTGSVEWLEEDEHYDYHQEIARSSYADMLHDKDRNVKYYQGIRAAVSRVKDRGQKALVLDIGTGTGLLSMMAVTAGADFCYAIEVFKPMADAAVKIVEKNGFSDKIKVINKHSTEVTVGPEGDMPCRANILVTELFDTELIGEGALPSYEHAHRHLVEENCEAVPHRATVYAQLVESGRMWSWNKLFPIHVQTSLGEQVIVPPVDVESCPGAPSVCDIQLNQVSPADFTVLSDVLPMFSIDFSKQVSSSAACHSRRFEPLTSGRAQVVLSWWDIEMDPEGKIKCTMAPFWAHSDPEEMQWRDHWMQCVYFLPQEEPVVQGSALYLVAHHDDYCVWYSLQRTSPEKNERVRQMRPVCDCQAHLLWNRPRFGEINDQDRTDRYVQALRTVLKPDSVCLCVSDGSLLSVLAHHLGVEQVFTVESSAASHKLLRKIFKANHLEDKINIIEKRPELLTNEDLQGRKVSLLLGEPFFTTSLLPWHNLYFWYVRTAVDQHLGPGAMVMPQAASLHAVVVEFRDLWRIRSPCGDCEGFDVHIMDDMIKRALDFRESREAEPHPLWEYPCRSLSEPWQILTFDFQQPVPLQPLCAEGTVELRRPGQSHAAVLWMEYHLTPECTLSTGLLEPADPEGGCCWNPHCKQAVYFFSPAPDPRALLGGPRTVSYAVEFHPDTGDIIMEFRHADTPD
As to the kind of experiment: Epigenetic enzyme assay, Methyltransferases (MTs). Particulars: read-out: % Inhibition of Control Values.

The next test deals with T3, BAP1 (h) (Homo sapiens, UniProt Q92560).
T3 sequence (Q92560 1-729): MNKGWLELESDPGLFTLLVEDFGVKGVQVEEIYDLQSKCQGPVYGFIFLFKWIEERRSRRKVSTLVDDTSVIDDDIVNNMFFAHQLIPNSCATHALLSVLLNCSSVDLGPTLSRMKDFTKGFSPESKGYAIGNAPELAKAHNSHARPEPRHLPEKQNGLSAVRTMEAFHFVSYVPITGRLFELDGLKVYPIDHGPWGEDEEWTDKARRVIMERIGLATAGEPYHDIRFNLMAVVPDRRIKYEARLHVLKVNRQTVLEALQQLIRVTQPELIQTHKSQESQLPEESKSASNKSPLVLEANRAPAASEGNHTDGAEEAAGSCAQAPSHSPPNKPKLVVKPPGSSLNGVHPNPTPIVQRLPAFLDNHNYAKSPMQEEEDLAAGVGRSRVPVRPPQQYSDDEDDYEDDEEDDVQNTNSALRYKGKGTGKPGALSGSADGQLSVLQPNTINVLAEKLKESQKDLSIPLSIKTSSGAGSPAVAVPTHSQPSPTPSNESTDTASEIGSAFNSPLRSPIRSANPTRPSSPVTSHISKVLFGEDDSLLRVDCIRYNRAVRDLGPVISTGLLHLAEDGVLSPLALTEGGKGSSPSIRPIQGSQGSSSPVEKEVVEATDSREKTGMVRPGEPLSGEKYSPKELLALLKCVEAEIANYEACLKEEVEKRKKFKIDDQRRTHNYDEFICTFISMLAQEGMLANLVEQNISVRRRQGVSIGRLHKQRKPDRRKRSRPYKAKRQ
The experiment in a line: Epigenetic enzyme assay, Ubiquitin modifying enzymes. Particulars: 10 μM; read-out: % Inhibition of Control Values.

For a further test, the target named is Deacetylase, Histone 4 (Homo sapiens, UniProt P56524). As to the kind of experiment: Deacetylase, Histone 4 (PanLab). The following applies: assay year 2014, read-out: % Control Response.
The target of another test is Deacetylase, Histone 6 (Homo sapiens, UniProt Q9UBN7). The experiment in a line: Deacetylase, Histone 6 (PanLab). Particulars: assay year 2014, read-out: % Control Response.
Test [1] deals with Deacetylase, Sirtuin SIRT1 (Homo sapiens, UniProt Q96EB6). The experiment in a line: Deacetylase, Sirtuin SIRT1 (PanLab). The following applies: assay year 2014, read-out: % Control Response.
Test [2] addresses Deacetylase, Sirtuin SIRT6 (Homo sapiens, UniProt Q8N6T7). The experiment in a line: Deacetylase, Sirtuin SIRT6 (PanLab). Particulars: assay year 2014, read-out: % Control Response.
Test [3] has as its system Nitric Oxide Synthase, Inducible (iNOS). As to the kind of experiment: Nitric Oxide Synthase, Inducible (iNOS). The following applies: 10 μM; assay year 2014.

SMILES strings stand for the structures. pIC50: −log10 of the molar value.

PRMT5 complex (h), sequence (O14744 whole entry): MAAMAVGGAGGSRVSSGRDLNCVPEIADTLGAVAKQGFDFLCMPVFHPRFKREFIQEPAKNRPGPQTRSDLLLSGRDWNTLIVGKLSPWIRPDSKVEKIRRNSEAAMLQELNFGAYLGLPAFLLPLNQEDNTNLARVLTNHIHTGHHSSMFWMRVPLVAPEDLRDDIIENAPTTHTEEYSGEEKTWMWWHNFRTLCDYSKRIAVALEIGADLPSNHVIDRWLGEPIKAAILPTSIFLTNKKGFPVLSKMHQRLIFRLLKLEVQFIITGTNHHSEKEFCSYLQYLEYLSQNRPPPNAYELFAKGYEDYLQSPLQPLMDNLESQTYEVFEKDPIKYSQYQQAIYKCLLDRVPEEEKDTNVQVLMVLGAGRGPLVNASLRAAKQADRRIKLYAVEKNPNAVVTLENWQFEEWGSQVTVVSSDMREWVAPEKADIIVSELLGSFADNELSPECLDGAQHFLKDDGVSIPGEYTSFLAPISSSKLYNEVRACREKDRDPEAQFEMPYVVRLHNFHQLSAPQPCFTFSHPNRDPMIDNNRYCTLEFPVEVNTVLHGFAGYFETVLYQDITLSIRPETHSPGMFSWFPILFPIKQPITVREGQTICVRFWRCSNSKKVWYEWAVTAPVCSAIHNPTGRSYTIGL
PRMT5 complex (h), sequence (Q9BQA1 whole entry partner): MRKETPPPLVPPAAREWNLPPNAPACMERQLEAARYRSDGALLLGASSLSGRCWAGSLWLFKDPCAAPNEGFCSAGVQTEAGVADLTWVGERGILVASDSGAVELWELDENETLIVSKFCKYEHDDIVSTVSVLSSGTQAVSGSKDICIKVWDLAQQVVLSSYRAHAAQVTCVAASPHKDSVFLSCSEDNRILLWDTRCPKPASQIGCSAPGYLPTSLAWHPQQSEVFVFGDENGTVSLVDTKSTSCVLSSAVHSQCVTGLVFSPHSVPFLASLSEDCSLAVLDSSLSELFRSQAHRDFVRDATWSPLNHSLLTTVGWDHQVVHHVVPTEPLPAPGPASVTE
Deacetylase, Sirtuin SIRT1, sequence (Q96EB6 whole entry): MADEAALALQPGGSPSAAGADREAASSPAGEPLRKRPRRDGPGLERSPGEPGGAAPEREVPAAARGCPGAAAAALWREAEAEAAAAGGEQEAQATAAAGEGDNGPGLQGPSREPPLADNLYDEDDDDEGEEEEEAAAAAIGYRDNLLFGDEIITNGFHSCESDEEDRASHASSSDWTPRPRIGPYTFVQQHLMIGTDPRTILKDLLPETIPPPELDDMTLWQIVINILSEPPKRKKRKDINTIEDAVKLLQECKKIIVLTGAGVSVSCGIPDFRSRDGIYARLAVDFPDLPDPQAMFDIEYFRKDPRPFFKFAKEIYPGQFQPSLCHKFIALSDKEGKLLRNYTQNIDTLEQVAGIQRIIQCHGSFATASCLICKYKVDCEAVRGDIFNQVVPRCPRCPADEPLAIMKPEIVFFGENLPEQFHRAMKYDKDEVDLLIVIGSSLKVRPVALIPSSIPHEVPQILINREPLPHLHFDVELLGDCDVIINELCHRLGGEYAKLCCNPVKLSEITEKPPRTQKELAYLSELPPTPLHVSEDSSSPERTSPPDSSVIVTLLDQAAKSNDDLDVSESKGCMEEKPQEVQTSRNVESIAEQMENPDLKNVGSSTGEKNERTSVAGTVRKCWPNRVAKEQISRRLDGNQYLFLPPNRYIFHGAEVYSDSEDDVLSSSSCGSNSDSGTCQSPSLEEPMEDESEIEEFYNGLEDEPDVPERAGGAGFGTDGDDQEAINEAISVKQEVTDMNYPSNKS
Deacetylase, Histone 6, sequence (Q9UBN7 whole entry): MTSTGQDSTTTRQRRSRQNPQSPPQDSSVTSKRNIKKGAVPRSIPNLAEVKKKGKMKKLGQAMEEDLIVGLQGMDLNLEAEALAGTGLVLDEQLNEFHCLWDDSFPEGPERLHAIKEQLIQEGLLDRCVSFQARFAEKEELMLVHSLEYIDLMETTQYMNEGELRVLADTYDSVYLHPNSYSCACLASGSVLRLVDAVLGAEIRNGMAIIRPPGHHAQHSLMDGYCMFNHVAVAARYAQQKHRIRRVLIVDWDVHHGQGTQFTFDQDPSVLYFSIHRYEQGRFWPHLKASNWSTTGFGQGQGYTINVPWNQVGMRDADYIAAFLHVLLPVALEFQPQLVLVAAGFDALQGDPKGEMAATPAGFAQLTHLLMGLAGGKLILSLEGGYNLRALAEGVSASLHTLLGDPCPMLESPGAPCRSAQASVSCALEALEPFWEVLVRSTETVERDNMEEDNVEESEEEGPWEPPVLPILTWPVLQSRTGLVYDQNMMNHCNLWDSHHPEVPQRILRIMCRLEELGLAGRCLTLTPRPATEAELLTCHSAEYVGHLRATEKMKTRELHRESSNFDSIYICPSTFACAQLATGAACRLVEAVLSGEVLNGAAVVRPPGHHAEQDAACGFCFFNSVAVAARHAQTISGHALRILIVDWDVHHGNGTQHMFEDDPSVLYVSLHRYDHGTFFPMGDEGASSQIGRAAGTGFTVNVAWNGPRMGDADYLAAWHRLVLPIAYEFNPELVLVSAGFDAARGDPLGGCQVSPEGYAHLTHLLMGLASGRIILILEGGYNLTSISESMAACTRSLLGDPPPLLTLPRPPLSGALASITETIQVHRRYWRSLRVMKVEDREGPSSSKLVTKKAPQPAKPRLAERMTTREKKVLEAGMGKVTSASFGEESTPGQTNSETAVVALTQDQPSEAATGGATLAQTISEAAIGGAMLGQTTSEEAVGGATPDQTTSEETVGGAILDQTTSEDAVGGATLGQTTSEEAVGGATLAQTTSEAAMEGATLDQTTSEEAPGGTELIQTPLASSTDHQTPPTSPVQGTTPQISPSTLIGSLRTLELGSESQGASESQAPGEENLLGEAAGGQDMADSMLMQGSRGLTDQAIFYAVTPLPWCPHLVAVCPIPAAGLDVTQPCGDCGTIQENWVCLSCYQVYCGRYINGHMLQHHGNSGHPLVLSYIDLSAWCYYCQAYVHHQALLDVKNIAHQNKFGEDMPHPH
Deacetylase, Sirtuin SIRT6, sequence (Q8N6T7 whole entry): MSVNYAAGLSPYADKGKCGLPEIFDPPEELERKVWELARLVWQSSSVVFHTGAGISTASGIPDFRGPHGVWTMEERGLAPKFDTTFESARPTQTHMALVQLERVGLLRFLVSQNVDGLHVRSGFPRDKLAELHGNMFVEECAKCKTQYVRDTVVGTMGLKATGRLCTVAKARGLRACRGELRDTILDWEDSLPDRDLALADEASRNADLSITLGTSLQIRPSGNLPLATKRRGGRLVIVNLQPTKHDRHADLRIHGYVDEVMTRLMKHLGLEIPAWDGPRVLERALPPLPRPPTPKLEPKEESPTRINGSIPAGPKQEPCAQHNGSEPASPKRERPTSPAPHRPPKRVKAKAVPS
Deacetylase, Histone 4, sequence (P56524 whole entry): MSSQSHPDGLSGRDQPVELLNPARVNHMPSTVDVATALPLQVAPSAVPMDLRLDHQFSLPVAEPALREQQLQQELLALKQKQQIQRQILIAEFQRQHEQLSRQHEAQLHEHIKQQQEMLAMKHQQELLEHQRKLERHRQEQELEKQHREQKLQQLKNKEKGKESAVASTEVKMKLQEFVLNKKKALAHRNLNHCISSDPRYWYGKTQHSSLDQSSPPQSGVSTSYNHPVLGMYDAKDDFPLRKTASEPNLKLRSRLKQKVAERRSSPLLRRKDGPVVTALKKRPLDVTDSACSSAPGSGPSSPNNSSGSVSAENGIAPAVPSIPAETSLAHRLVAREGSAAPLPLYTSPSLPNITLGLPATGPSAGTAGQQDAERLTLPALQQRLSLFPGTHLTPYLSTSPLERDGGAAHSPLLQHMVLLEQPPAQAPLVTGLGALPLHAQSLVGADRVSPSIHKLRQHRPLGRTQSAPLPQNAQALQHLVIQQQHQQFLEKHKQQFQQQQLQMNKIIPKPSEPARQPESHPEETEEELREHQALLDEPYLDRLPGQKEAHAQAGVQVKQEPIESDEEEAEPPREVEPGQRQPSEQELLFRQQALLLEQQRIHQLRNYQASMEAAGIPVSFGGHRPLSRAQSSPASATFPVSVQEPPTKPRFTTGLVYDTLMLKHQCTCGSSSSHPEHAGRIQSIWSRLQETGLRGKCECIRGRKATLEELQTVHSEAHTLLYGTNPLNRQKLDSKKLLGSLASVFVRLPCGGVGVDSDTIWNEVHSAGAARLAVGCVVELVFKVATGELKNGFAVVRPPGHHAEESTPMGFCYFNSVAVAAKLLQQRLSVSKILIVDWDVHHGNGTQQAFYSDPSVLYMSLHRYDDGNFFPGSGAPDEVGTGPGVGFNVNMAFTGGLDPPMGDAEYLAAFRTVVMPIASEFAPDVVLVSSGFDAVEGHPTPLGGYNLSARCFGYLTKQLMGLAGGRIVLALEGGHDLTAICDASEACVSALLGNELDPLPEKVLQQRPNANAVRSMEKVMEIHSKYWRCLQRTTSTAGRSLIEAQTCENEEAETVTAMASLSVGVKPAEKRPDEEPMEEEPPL

In general, inhibition refers to the change of the read-out against control, counted positive when it falls. A word on the pIC50: it is the IC50 on a negative log10 scale, so that one unit is a factor of ten. For `CC(C)=CCC[C@H](CO)[C@@H]1CC[C@@H](C)c2c1cc(C)c(O)c2O` [Compound 1, 7,8,18-trihydroxyserrulat-14-ene], the “% Inhibition of Control Values” on JMJD2B (h) (10 μM) is reported as “significant inhibitory activity”. Also, the inhibition at 10 µM at JMJD2B (h) (10 μM) was 65%; at PRMT5 complex (h), 8%; at PRMT7 (h) it was -2%; at BAP1 (h), 1%. Besides, at JMJD2B (h) (Table 11, inhibition/concentration-response curve, read-out: IC50), the negative-log IC50 (pIC50) is 4.92. The remaining activity at 10 µM amounted to 4% at Deacetylase, Histone 4; 0% at Deacetylase, Histone 6; 6% in [1]; 35% in test [2]. The “% Control Response” value in [3] was found to be 16%.

Consider `CC(C)=CCC[C@@H]1COc2c(C)cc(O)c3c2[C@H]1CC[C@H]3C` [Compound 3, 5,18-epoxy-8-hydroxyserrulat-14-ene], for which the inhibition at 10 µM at JMJD2B (h) (10 μM) was 8%; at PRMT5 complex (h), 9%; at PRMT7 (h), -36%; at BAP1 (h), 24%.

`CC(C)=CCC[C@@H]1C(O)Oc2c(C)cc(O)c3c2[C@H]1CC[C@H]3C` (stereo partly drawn) [Compound 2, 5,18-epoxyserrulat-14-en-8,18-diol]: the inhibition at 10 µM on JMJD2B (h) (10 μM) is 16%; on PRMT5 complex (h), -8%; on PRMT7 (h), 0%; on BAP1 (h), -9%. For the same compound, the remaining activity at 10 µM at Deacetylase, Histone 4 is -5%; at Deacetylase, Histone 6 it was -17%; in test [1] it was -3%; in [2], 18%. For the same compound, in test [3], the “% Control Response” value turned out to be 7%.
